Laboratory results from patent publication US20220304993A1, “CONJUGATES OF AN ELECTRON-DONATING NITROGEN OR TERTIARY AMINE […]” (Ascendis Pharma A/S, priority 2019, published 2022).

Experiment: In vitro release kinetics: cleavage rate of the reversible bond from the conjugates
Type: physicochemical
Conditions: pH 7.4, 37° C., aqueous buffer (48 mM sodium phosphate, 20% acetonitrile), disappearance of the conjugate by LCMS (UV detection), curve fitting, read-out: t1/2 (pH 7.4) (converted)
Procedure: The cleavage rate of the reversible bond from conjugates 8a-b was monitored at pH 7.4 and 37° C. in aqueous buffer (pH 7.4, 48 mM sodium phosphate, 20% acetonitrile). Disappearance of the conjugate was determined by LCMS (UV detection) and fitted with curve fitting software to obtain the half-life of the release.

CNCCCN(C)C(=O)Oc1ccc(C(C)[n+]2cccc3ccccc32)cc1 (centres unmarked) [Compound 8b]
half-life: 1.8 h

CNCCCN(C)C(=O)Oc1ccc(C(C)[N+](C)(C)CCc2ccccc2)cc1 (centres unmarked) [Compound 8a]
half-life: 1.3 h
